According to ChEMBL document CHEMBL4507263, “Data for DCP probe BAY-474” (2021):

Columns and labels:
[1] = test system: Epidermal growth factor receptor (Homo sapiens), P00533 [UNDEFINED MUTATION]; conditions: Compound concentration 1000.0 nM
[2] = target: Activated CDC42 kinase 1 (Homo sapiens) (UniProt Q07912); conditions: Compound concentration 1000.0 nM
[3] = target: Ephrin type-A receptor 1 (Homo sapiens) (UniProt P21709); conditions: Compound concentration 1000.0 nM
[4] = target: Mitogen-activated protein kinase kinase kinase 5 (Homo sapiens) (UniProt Q99683); conditions: Compound concentration 1000.0 nM
[5] = target: Atypical kinase COQ8B, mitochondrial (Homo sapiens) (UniProt Q96D53); conditions: Compound concentration 1000.0 nM
[6] = target: Tyrosine-protein kinase JAK1 (Homo sapiens) (UniProt P23458); conditions: Compound concentration 1000.0 nM
[7] = target: Serine/threonine-protein kinase RIO3 (Homo sapiens) (UniProt O14730); conditions: Compound concentration 1000.0 nM
[8] = target: Mitogen-activated protein kinase kinase kinase 6 (Homo sapiens) (UniProt O95382); conditions: Compound concentration 1000.0 nM
[9] = target: Serine/threonine-protein kinase Chk1 (Homo sapiens) (UniProt O14757); conditions: Compound concentration 1000.0 nM
[10] = target: cAMP-dependent protein kinase catalytic subunit alpha (Homo sapiens) (UniProt P17612); conditions: Compound concentration 1000.0 nM
[11] = target: STE20/SPS1-related proline-alanine-rich protein kinase (Homo sapiens) (UniProt Q9UEW8); conditions: Compound concentration 1000.0 nM
[12] = target: Homeodomain-interacting protein kinase 3 (Homo sapiens) (UniProt Q9H422); conditions: Compound concentration 1000.0 nM
[13] = target: Tyrosine-protein kinase ABL1 (Homo sapiens) (UniProt P00519); conditions: Compound concentration 1000.0 nM
[14] = target: MAP/microtubule affinity-regulating kinase 4 (Homo sapiens) (UniProt Q96L34); conditions: Compound concentration 1000.0 nM
[15] = target: Mitogen-activated protein kinase kinase kinase kinase 3 (Homo sapiens) (UniProt Q8IVH8); conditions: Compound concentration 1000.0 nM
[16] = target: Serine/threonine-protein kinase 38-like (Homo sapiens) (UniProt Q9Y2H1); conditions: Compound concentration 1000.0 nM
[17] = target: Dual specificity mitogen-activated protein kinase kinase 6 (Homo sapiens) (UniProt P52564); conditions: Compound concentration 1000.0 nM
[18] = test system: Epidermal growth factor receptor (Homo sapiens), P00533 [UNDEFINED MUTATION]; conditions: Compound concentration 1000.0 nM; remark: listed apart in the source
[19] = target: Serine/threonine-protein kinase 4 (Homo sapiens) (UniProt Q13043); assay: MST1 (h) Millipore kinase activity assay; conditions: Compound concentration 1.0 uM
[20] = target: B2 bradykinin receptor (Homo sapiens) (UniProt P30411); conditions: Compound concentration 10.0 uM
[21] = target: Mast/stem cell growth factor receptor Kit (Homo sapiens) (UniProt P10721); assay: cKit (h) Millipore kinase activity assay; conditions: Compound concentration 1.0 uM
[22] = target: Gamma-aminobutyric acid type B receptor subunit 1 (Homo sapiens) (UniProt Q9UBS5); assay: Inhibition of GABAB1A at compound concentration of 10.0 uM in the Eurofins-Panlabs radioligand binding assay (Eurofins_assay_228610); set-up: ligand concentration 4 nM; conditions: Compound concentration 10.0 uM
[23] = target: T1, 5-hydroxytryptamine receptor 1A (Homo sapiens) (UniProt P08908); conditions: Compound concentration 10.0 uM
T1 sequence (whole entry): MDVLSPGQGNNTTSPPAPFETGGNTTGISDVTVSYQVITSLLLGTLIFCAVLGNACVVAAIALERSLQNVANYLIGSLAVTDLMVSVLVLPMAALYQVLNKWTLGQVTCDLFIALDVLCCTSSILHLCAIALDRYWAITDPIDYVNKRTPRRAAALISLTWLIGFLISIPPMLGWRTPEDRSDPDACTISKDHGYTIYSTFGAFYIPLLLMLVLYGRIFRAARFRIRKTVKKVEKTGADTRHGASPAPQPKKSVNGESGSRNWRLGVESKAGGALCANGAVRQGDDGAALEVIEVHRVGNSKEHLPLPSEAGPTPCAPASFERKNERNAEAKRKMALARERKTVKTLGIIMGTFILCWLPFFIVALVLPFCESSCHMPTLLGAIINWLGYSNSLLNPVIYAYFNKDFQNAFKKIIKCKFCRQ

[24] = target: Testis-specific serine/threonine-protein kinase 2 (Homo sapiens) (UniProt Q96PF2); assay: TSSK2 (h) Millipore kinase activity assay; conditions: Compound concentration 1.0 uM
[25] = target: Casein kinase II subunit alpha (Homo sapiens) (UniProt P68400); assay: CK2 (h) Millipore kinase activity assay; conditions: Compound concentration 1.0 uM
[26] = target: Serine/threonine-protein kinase pim-1 (Homo sapiens) (UniProt P11309); assay: Pim-1 (h) Millipore kinase activity assay; conditions: Compound concentration 1.0 uM
[27] = target: Tyrosine-protein kinase ABL2 (Homo sapiens) (UniProt P42684); assay: Arg (h) Millipore kinase activity assay; conditions: Compound concentration 1.0 uM
[28] = target: Voltage-dependent N-type calcium channel subunit alpha-1B (Homo sapiens) (UniProt Q00975); assay: Inhibition of Calcium Channel N-Type at 10 µM in the Eurofins-Panlabs radioligand binding assay (Eurofins_assay_216000); conditions: Rattus norvegicus; Compound concentration 10.0 uM
[29] = target: Protein kinase C epsilon type (Homo sapiens) (UniProt Q02156); assay: PKCepsilon (h) Millipore kinase activity assay; conditions: Compound concentration 1.0 uM
[30] = target: Prostaglandin E2 receptor EP4 subtype (Homo sapiens) (UniProt P35408); assay: Inhibition of Prostanoid EP4 at 10 µM in the Eurofins-Panlabs radioligand binding assay (Eurofins_assay_268420); set-up: ligand concentration 1 nM; conditions: Compound concentration 10.0 uM
[31] = target: Testis-specific serine/threonine-protein kinase 1 (Homo sapiens) (UniProt Q9BXA7); assay: TSSK1 (h) Millipore kinase activity assay; conditions: Compound concentration 1.0 uM

Epidermal growth factor receptor (Homo sapiens), P00533 [UNDEFINED MUTATION], sequence (P00533 whole entry, looked up, change not shown): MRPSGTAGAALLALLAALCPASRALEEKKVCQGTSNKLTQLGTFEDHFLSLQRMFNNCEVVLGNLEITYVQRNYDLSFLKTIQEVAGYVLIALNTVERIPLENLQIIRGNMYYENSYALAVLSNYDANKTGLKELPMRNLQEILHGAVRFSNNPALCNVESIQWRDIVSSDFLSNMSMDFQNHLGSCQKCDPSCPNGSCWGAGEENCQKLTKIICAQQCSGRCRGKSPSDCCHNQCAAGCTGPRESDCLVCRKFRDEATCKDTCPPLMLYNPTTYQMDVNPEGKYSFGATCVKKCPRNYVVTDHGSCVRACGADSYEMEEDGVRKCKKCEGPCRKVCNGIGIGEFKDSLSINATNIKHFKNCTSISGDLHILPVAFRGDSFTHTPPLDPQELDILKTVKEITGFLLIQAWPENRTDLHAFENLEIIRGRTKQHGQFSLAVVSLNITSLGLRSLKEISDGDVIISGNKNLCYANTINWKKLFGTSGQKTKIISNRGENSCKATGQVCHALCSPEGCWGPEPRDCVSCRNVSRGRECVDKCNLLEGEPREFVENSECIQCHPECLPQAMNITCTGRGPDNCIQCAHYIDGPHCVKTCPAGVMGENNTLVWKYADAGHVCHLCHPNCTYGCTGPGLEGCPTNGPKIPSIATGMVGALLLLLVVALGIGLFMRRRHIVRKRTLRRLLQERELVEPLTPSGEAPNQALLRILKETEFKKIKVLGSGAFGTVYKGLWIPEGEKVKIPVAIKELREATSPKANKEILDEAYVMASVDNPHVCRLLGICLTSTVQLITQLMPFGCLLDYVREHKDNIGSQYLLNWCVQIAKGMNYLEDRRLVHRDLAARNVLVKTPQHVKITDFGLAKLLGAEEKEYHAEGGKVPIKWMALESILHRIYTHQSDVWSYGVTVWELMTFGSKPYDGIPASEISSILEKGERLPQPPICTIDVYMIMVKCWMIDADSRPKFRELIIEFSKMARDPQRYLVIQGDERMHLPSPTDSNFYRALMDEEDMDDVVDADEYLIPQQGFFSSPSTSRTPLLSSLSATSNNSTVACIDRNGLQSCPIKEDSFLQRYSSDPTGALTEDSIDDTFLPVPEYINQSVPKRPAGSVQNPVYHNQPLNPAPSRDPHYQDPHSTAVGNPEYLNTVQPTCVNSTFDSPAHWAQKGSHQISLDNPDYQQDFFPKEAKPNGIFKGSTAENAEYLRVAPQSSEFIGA
Serine/threonine-protein kinase RIO3 (Homo sapiens), sequence (O14730 whole entry): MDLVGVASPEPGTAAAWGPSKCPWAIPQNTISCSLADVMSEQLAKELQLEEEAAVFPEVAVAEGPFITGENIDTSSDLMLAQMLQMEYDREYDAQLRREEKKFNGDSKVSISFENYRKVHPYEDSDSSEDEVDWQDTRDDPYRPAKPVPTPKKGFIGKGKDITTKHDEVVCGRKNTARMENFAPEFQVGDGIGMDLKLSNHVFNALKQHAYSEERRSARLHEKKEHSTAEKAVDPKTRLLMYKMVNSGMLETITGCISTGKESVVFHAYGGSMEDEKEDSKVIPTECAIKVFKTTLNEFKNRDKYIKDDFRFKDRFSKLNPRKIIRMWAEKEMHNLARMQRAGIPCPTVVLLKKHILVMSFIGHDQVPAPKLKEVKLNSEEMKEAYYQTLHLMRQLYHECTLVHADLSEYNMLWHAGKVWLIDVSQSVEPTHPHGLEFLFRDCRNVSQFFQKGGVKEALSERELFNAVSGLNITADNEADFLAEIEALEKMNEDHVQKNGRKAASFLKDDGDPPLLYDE
Tyrosine-protein kinase ABL1 (Homo sapiens), sequence (P00519 whole entry): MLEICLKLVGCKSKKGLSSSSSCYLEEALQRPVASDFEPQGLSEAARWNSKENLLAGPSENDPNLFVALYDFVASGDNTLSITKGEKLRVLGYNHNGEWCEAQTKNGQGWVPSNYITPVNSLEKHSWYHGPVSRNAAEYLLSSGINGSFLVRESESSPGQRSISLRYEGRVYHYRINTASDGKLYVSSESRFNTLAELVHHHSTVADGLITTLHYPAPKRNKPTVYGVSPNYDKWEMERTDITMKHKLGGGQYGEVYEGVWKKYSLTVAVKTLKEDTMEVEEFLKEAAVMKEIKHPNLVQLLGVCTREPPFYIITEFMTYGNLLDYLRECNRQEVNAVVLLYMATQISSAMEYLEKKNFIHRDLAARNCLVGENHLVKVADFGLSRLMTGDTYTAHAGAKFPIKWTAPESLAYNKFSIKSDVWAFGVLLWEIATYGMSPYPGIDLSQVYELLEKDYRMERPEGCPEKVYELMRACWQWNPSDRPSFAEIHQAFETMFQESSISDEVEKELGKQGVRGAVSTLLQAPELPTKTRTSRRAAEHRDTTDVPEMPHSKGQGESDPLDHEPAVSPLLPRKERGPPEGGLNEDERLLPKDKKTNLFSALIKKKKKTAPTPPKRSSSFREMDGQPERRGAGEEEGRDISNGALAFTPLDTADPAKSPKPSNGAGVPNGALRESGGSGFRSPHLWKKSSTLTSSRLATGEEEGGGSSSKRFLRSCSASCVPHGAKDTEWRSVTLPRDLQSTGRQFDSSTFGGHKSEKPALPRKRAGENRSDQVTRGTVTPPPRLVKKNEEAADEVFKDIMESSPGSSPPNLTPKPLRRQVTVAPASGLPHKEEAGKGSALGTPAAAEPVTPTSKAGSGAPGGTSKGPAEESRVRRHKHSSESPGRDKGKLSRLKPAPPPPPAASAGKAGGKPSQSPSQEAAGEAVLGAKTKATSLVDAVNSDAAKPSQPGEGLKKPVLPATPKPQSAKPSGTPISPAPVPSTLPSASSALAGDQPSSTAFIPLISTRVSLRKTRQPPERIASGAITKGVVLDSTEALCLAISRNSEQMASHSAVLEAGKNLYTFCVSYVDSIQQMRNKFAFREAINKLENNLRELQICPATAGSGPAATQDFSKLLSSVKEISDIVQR
Testis-specific serine/threonine-protein kinase 2 (Homo sapiens), sequence (Q96PF2 whole entry): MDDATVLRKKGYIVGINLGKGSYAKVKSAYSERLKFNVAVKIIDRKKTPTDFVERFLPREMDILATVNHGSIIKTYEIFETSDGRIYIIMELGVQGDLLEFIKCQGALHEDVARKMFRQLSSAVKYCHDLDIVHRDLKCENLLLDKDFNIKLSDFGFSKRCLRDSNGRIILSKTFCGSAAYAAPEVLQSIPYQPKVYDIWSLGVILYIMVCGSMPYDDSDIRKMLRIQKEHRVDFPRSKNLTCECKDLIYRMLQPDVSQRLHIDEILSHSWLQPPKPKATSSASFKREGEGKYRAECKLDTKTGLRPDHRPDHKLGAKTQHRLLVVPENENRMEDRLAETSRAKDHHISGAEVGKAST
Serine/threonine-protein kinase 4 (Homo sapiens), sequence (Q13043 whole entry): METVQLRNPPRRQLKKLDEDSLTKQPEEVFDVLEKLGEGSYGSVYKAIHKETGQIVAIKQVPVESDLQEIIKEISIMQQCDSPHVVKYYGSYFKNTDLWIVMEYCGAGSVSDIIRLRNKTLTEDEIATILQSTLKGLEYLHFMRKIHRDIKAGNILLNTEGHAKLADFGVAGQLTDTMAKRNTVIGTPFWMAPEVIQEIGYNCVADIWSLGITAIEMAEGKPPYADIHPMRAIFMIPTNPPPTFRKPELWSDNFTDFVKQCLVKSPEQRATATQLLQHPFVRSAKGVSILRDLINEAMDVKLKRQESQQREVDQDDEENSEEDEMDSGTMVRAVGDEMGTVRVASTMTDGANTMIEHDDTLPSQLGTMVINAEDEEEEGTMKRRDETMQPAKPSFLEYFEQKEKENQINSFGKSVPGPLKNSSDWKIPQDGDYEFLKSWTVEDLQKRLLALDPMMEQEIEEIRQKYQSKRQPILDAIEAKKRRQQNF
Tyrosine-protein kinase JAK1 (Homo sapiens), sequence (P23458 whole entry): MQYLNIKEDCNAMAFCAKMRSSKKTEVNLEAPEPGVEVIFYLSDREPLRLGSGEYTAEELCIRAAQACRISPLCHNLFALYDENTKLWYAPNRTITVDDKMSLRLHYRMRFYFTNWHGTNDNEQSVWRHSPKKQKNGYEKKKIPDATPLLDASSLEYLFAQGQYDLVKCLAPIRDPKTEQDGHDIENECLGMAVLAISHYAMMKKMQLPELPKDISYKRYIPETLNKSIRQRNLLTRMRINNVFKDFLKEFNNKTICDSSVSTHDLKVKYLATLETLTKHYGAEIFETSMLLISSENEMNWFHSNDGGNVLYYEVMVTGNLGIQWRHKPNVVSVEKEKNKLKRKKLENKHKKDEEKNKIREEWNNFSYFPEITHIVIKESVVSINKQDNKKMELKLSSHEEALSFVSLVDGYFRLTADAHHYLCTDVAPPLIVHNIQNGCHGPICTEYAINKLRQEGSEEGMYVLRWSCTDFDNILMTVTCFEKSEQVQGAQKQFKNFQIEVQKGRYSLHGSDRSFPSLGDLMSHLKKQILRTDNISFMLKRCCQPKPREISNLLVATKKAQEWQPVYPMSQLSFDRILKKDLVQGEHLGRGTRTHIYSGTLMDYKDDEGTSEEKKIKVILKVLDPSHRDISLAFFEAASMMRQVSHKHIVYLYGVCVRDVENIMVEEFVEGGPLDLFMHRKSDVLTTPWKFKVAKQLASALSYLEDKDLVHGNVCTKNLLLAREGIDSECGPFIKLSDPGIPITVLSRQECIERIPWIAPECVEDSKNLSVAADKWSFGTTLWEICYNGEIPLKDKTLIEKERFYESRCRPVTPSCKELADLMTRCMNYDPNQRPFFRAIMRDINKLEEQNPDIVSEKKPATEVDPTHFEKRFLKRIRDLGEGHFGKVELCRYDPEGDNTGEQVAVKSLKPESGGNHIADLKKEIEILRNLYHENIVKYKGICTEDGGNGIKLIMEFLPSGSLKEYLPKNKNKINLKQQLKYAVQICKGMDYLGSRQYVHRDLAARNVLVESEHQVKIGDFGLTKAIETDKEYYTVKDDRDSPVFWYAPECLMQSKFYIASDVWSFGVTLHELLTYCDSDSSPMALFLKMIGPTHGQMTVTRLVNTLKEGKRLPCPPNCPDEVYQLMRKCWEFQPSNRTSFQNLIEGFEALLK

CC1=C(C#N)[C@@H](c2ccc3[nH]nc(C)c3c2)C(C#N)=C(c2ccc(Cl)cc2)N1 [BAY-827]
residual activity [1]: 79.5%
residual activity [2]: 100%
residual activity [3]: 100%
residual activity [4]: 100%
residual activity [5]: 78.8%
residual activity [6]: 38.2%
residual activity [7]: 100%
residual activity [8]: 83.2%
residual activity [9]: 100%
residual activity [10]: 96.7%
residual activity [11]: 90.7%
residual activity [12]: 89.5%
residual activity [13]: 52.6%
residual activity [14]: 100%
residual activity [15]: 100%
residual activity [16]: 100%
residual activity [17]: 100%
residual activity [18]: 100%

CC1=C(C#N)C(c2ccc3[nH]nc(C)c3c2)C(C#N)=C(C)N1 [BAY-474]
inhibition [19]: 19%
inhibition [20]: -10%
inhibition [21]: -7%
inhibition [22]: 0%
inhibition [23]: -9%
inhibition [24]: -3%
inhibition [25]: -8%
inhibition [26]: -3%
inhibition [27]: 26%
inhibition [28]: 6%
inhibition [29]: 26%
inhibition [30]: 19%
inhibition [31]: 27%
